US12295937B2, “Psychoactive medicines and their use for treating psychiatric and neurological conditions and disorders” (Transcend Therapeutics, Inc., priority 2021, dated 2025)

Columns and labels:
[1] = Mouse fear extinction paradigm (PTSD model); assay type: in vivo; conditions: 30 mg/kg IP 30 min before extinction training; day 3
Text: (FIG. 9A) Schematic of experimental design. A single CS-US (tone-shock) pairing on day 1 was followed by 6 CS presentations in a novel context (context B). […] On day 3, the time spent freezing to the CS was quantified. […] (FIG. 9C) No locomotor changes were observed on day 3 (t(26)=1.073, p>0.05). Data are mcan+/−SEM.
FIGS. 10A-10B: MBDB improves fear extinction in a PTSD mouse model. A single CS-US (tone-shock) pairing on day 1 was followed by 6 conditioned stimulus (CS) presentations in a novel context (context B). MBDB or saline vehicle was injected 30 min prior to extinction training on day 2. The time spent freezing to the CS was quantified on day 2. […] Data are mean+/−SEM. N=10 for MBDB group (5 mg/kg, IP) and N=16 for saline control group. **p<0.01 vs. vehicle control group.
Effective PTSD treatments facilitate the disassociation between a traumatic memory and the patient's fear response, making cues for the traumatic memory evoke less of a fear response. This is modeled in the mouse fear extinction paradigm (see FIG. 9A) which takes place over 3 days. […] On day 3 (extinction recall), the mice are “asked” if that tone (CS) still elicits a fearful response, as measured by the time spent freezing when the tone is presented. […]

Open field test (OFT) = assay type: in vivo, rat; conditions: 5 or 15 mg/kg IP, 30 minutes before testing
Procedure: Method: Consecutive beam breaks and/or video-tracking of time spent in the center versus periphery of the open field are measured. Also measured are parameters such as distance traveled and ambulatory activity (horizontal and vertical) for the duration of the test session.
The open field test (OFT) capitalizes on a rodent's innate fear of open spaces to assess anxiety-like behavior. More time spent in the center of an open field reflects an anxiolytic (anti-anxiety) effect.
Locomotor activity was also measured in the OFT.
To investigate whether MBDB has an anti-anxiety (anxiolytic) effect, rats were dosed with MBDB (0.5-30 mg/kg, IP) or vehicle (saline) and 30-minutes later were tested in the open field for 30 minutes. This anxiety test capitalizes on a rodents' innate fear of wide-open spaces and propensity to hug the walls when placed into the open field. Therefore, a drug that increases the time spent in the center of the open field has anxiolytic activity and predicts utility for treating anxiety in humans.

168 GPCRs [2] = target: T1, 168 GPCRs (Homo sapiens, UniProt P32239); assay: β-arrestin GPCR screen (PathHunter / GPCRmax), agonist mode; assay type: cell-based; conditions: CCKBR, 1 uM
T1 construct: host or cells: PathHunter cell lines
T1 sequence (P32239 whole entry): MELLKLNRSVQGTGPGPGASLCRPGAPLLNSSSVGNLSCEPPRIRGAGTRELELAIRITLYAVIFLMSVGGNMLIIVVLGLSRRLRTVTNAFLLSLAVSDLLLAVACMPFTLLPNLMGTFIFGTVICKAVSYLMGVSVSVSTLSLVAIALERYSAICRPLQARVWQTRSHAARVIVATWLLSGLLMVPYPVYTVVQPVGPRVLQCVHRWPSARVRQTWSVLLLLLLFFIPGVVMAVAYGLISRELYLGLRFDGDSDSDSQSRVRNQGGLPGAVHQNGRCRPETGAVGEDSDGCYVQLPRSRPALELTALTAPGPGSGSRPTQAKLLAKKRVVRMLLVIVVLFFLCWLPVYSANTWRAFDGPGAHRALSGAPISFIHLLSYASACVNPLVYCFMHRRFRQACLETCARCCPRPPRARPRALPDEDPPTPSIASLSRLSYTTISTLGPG
Procedure: (§1) For agonist determination, cells were incubated with sample to induce response. […] Vehicle concentration was 1%.

168 GPCRs [3] = target: T2, 168 GPCRs (Homo sapiens, UniProt P32249); assay: as above; assay type: cell-based; conditions: EBI2, 1 uM
T2 construct: host or cells: PathHunter cell lines
T2 sequence (P32249 whole entry): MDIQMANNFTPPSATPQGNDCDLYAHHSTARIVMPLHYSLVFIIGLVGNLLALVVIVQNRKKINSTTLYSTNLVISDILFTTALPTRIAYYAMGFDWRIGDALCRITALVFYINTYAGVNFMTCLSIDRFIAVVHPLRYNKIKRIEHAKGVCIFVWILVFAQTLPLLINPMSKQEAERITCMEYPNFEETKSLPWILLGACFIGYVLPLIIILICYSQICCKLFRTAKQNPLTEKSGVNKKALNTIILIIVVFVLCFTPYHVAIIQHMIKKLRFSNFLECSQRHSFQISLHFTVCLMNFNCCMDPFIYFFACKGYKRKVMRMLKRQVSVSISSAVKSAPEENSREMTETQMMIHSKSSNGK
Procedure: as §1

168 GPCRs [4] = target: T3, 168 GPCRs (Homo sapiens, UniProt P34998); assay: as above; assay type: cell-based; conditions: CRHR1, 1 uM
T3 construct: host or cells: PathHunter cell lines
T3 sequence (P34998 24-415): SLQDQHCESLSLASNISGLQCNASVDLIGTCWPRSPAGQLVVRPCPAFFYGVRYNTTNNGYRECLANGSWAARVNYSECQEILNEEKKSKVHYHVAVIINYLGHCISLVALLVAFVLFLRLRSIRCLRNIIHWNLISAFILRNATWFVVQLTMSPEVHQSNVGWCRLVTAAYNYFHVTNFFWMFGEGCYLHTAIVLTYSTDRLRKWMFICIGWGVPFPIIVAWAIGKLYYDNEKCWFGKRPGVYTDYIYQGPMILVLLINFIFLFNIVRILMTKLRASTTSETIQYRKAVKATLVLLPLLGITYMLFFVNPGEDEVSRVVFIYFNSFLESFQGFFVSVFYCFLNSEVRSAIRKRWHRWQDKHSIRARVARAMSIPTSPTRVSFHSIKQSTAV
Procedure: as §1

168 GPCRs [5] = target: T4, 168 GPCRs (Homo sapiens, UniProt P35408); assay: as above; assay type: cell-based; conditions: PTGER4, 1 uM
T4 construct: host or cells: PathHunter cell lines
T4 sequence (P35408 whole entry): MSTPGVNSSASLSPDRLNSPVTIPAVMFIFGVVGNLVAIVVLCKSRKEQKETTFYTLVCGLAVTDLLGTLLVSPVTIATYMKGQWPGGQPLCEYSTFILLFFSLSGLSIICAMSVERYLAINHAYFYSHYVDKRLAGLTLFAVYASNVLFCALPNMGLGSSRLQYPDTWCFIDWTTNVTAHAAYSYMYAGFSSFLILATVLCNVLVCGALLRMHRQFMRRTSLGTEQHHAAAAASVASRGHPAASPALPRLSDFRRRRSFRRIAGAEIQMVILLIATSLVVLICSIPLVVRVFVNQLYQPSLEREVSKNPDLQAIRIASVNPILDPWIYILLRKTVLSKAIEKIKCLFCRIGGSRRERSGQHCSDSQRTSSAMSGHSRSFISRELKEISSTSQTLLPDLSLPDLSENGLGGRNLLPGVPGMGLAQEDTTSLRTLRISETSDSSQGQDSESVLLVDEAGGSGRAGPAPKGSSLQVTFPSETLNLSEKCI
Procedure: as §1

168 GPCRs [6] = target: T5, 168 GPCRs (Homo sapiens, UniProt P49238); assay: as above; assay type: cell-based; conditions: CX3CR1, 1 uM
T5 construct: host or cells: PathHunter cell lines
T5 sequence (P49238 whole entry): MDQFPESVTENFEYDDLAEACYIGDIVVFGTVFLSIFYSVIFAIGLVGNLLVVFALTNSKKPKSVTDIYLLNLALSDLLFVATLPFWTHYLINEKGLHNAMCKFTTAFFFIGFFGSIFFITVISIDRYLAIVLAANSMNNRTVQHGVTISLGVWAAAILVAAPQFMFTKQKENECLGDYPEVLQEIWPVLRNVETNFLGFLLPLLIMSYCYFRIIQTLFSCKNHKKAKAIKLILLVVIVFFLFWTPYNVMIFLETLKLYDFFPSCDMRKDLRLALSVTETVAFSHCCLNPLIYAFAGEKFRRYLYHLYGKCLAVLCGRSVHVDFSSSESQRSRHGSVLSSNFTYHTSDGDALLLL
Procedure: as §1

168 GPCRs [7] = target: T6, 168 GPCRs (Homo sapiens, UniProt Q99788); assay: as above; assay type: cell-based; conditions: CMKLR1, 1 uM
T6 construct: host or cells: PathHunter cell lines
T6 sequence (Q99788 whole entry): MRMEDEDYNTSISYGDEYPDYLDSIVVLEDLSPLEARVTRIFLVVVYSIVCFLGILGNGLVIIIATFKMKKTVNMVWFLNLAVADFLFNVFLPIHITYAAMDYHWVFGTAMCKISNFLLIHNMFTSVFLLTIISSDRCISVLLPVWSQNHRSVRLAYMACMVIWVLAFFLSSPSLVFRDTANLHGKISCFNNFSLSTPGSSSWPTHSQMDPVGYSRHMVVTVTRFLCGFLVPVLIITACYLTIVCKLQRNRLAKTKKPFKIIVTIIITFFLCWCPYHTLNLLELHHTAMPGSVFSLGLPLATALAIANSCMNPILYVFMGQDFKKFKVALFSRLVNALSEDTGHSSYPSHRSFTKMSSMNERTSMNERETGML
Procedure: as §1

168 GPCRs [8] = assay: as above; assay type: cell-based; conditions: CCR, 10 uM
Procedure: as §1

[9] = tested on: gene expression in amygdala, frontal cortex, hippocampus; assay: RNA-sequencing of rat brain areas after a single dose; assay type: in vivo; conditions: for Genes differentially regulated vs. vehicle: 10 mg/kg IP, 8 hours
[10] = Rat plasma pharmacokinetics by administration route; assay type: in vivo; conditions: male, SD
Text: Plasma was collected 0.25, 0.5, 1-, 2-, 4-, and 8-hours post-dose.

[11] = tested on: Sprague Dawley rat neurons; assay: Neurite outgrowth in E18 cortical cultures; assay type: cell-based; conditions: 10 μM, applied day 1, fixed day 3-4
Procedure: Neuroplasticity is defined as changes in the structure, connections and function of neurons, including neurite outgrowth. […] E18 cortical cultures were harvested and plated on culture dishes. […] Neurite length was measured using ImageJ software.

168 GPCRs [12] = target: 168 GPCRs (Homo sapiens, UniProt O43603); assay: β-arrestin GPCR screen (PathHunter / GPCRmax), antagonist mode; conditions: GALR2, Antagonist mode, 10 uM
Sequence of 168 GPCRs (Homo sapiens, UniProt O43603) (O43603 whole entry): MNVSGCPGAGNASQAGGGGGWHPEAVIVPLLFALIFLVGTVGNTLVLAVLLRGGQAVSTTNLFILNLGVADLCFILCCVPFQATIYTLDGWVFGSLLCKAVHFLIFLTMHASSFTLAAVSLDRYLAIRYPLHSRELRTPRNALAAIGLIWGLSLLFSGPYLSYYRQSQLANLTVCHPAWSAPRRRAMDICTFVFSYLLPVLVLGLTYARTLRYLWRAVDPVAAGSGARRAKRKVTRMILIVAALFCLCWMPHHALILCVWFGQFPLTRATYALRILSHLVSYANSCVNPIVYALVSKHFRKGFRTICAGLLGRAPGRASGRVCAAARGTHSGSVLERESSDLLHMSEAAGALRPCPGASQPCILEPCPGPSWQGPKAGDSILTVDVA

168 GPCRs [13] = target: 168 GPCRs (Homo sapiens, UniProt P08588); assay: as above; conditions: ADRB1, Antagonist mode, 10 uM
Sequence of 168 GPCRs (Homo sapiens, UniProt P08588) (P08588 whole entry): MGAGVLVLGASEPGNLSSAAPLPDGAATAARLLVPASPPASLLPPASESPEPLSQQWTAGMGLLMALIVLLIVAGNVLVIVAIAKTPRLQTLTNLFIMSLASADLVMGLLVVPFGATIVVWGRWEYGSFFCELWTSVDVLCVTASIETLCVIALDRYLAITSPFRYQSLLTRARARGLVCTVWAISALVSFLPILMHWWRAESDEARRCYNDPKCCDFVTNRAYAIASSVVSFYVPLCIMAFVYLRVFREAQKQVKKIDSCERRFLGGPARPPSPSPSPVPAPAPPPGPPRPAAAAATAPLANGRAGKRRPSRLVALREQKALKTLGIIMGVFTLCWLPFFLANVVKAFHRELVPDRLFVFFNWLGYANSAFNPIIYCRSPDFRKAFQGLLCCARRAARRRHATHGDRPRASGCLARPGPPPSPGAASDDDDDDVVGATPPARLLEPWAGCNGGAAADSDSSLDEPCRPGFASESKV

168 GPCRs [14] = target: 168 GPCRs (Homo sapiens, UniProt P30411); assay: as above; conditions: BDKRB2, Antagonist mode, 10 uM
Sequence of 168 GPCRs (Homo sapiens, UniProt P30411) (P30411 whole entry): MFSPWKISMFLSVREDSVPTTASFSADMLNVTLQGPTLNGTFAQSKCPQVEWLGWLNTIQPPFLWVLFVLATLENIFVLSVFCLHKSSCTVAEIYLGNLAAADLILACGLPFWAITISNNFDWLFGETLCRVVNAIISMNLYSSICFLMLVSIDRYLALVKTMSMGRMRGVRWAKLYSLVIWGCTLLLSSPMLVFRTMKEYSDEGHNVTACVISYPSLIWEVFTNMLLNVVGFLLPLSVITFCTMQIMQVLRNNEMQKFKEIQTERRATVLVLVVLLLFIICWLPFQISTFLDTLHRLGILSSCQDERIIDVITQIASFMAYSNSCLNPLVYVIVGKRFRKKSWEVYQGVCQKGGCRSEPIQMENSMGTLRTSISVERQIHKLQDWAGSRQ

168 GPCRs [15] = target: 168 GPCRs (Homo sapiens, UniProt P49190); assay: as above
Sequence of 168 GPCRs (Homo sapiens, UniProt P49190) (P49190 25-550): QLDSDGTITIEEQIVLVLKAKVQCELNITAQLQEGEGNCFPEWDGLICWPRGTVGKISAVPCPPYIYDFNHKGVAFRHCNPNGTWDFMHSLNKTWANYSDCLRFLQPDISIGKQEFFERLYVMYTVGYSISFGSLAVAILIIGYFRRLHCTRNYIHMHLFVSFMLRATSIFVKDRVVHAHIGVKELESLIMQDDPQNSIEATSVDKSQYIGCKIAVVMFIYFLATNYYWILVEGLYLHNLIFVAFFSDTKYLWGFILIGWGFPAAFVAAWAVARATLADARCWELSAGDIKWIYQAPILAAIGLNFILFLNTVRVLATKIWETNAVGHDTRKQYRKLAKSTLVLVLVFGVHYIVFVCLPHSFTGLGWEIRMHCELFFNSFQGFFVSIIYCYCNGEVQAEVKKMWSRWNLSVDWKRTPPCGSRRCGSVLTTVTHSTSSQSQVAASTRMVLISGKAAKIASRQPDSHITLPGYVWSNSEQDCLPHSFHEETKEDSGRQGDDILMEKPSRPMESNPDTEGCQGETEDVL

168 GPCRs [16] = target: 168 GPCRs (Homo sapiens, UniProt Q8TDS5); assay: as above; conditions: OXER1; Antagonist; 1 uM
Sequence of 168 GPCRs (Homo sapiens, UniProt Q8TDS5) (Q8TDS5 whole entry): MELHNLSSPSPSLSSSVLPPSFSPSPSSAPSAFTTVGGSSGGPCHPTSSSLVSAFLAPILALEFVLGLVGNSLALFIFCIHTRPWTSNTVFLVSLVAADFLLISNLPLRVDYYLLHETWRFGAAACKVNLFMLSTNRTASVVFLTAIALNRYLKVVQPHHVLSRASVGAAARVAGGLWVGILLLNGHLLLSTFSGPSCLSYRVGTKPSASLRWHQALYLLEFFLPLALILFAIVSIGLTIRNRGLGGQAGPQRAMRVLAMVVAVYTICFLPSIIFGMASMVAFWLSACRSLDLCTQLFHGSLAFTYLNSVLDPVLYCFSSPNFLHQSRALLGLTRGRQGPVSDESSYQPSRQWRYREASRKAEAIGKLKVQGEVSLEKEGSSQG

Structure (SMILES): CNC(C)C(=O)c1ccc2c(c1)OCO2 (stereo not shown) [Methylone, 3,4-methylenedioxy-N-methylcathinone]
- Enhancement of fear extinction recall vs. saline controls [1]: ~60%
- Time spent in the center of the open field vs. vehicle (Open field test (OFT)): significantly increases the time spent in the center of the open field
- % Activity (168 GPCRs [2]): −1%
- % Activity (168 GPCRs [3]): 0.5%
- % Activity (168 GPCRs [4]): 1.4%
- % Activity (168 GPCRs [5]): 2.8%
- % Activity (168 GPCRs [6]): 0%
- % Activity (168 GPCRs [7]): −0.2%
- % Activity (168 GPCRs [8]): 3.6%
- Genes regulated by methylone that are also regulated by MDMA ([9]; amygdala): 87%
- Genes differentially regulated vs. vehicle ([9]; amygdala, >25% change, padj<0.1): 121 genes
- Genes regulated by both treatments ([9]; frontal cortex): 154 genes
- Genes significantly regulated ([9]; frontal cortex, 10 mg/kg IP (Example 27)): 480 genes
- Genes differentially regulated vs. vehicle ([9]; frontal cortex): 471 genes
- Genes differentially regulated vs. vehicle ([9]; hippocampus): 12 genes
- AUC(0-inf) ([10]; IM 15 mg/kg): 4.61 µg·h/mL
- Cmax ([10]; IM 15 mg/kg): 5.4 µg/mL
- half-life ([10]; IM 15 mg/kg): 44.4 min
- AUC(0-inf) ([10]; IM 20 mg/kg): 6.37 µg·h/mL
- Cmax ([10]; IM 20 mg/kg): 5.92 µg/mL
- half-life ([10]; IM 20 mg/kg): 42 min
- AUC(0-inf) ([10]; IP 15 mg/kg): 2.59 µg·h/mL
- Cmax ([10]; IP 15 mg/kg): 1.25 µg/mL
- half-life ([10]; IP 15 mg/kg): 56.1 min
- AUC(0-inf) ([10]; PO 15 mg/kg): 2.29 µg·h/mL
- Cmax ([10]; PO 15 mg/kg): 0.552 µg/mL
- half-life ([10]; PO 15 mg/kg): 136 min
- AUC(0-inf) ([10]; SC 15 mg/kg): 4.33 µg·h/mL
- Cmax ([10]; SC 15 mg/kg): 3.65 µg/mL
- half-life ([10]; SC 15 mg/kg): 49.2 min
- AUC(0-inf) ([10]; SC 20 mg/kg): 5.96 µg·h/mL
- Cmax ([10]; SC 20 mg/kg): 4.32 µg/mL
- half-life ([10]; SC 20 mg/kg): 52.2 min
- Increase in neurite length vs. vehicle [11]: ~2 fold
- % Activity (168 GPCRs [12]): 1.5%
- % Activity (168 GPCRs [13]): −1.2%
- % Activity (168 GPCRs [14]): −2.6%
- % Activity (168 GPCRs [15]; PTHR2, Antagonist mode, 10 uM): −0.2%
- % Activity (168 GPCRs [15]; PTHR2, Antagonist, 1 uM): −1%
- % Activity (168 GPCRs [16]): 2.9%
